Here are results for 10 compounds from patent US8357694B2, “Substituted 5,6-dihydro-6-phenylbenzo[F]isoquinolin-2-amine compounds” (ArQule, Inc., priority 2008, dated 2013).

Structures are written as SMILES. “And” between values parts separate entries of the source, which are not always exact repeats. Equal values may be shown once. Where a name gives a salt, the structure may show the parent alone. Read-outs that look alike come from different tables or passages of the source.

One data set concerns the target T1, FGFR2 kinase (Homo sapiens, UniProt P21802, N549H).
T1 construct: purchased Millipore 14-742
As to the kind of experiment: fluorescent ELISA FGFR2 kinase assay (biochemical). The protocol:
The enzymatic assays described herein are conducted according to the following procedures from commercially available reagents. In one, non limiting, example, a fluorescent ELISA assay is used to identify and characterize inhibitors of FGFR2 kinase as described herein. This heterogeneous assay utilizes a biotinylated peptide with a tyrosine motif as a substrate and an anti-phospho-tyrosine antibody to measure phosphorylation of the substrate. […] The reaction is incubated for 60 minutes. As the reaction proceeds, FGFR2 phosphorylates tyrosines in the peptide. […] Peptides are captured for 30 minutes at room temperature, the phosphorylation of peptides continues during this phase. The reaction is stopped by washing the streptavidin-coated plate 6 times with TBST. […] Unbound anti-phospho-tyrosine antibody is removed by washing the streptavidin-coated plate 6 times with TBST. […] Unbound secondary antibody is removed by washing the streptavidin-coated plate 6 times with TBST.
In general terms: ELISA stands for enzyme-linked immunosorbent assay.

Data set [1] concerns SNU-16. As to the kind of experiment: in vitro PD assay, SNU-16. The conditions noted are these: Homo sapiens. The format is cell-based.
Data set [2] relates to KATO III. As to the kind of experiment: in vitro PD assay, KATO III. The class given is cell-based. The conditions noted are these: Homo sapiens.
For data set [3], the system named is KATO III. The data set can be described thus: MTS assay, KATO III. The format is cell-based. The conditions noted are these: Homo sapiens, read-out: MTS IC50. On the technique in general: Tetrazolium dyes change colour on reduction, which living cells bring about.
Description: (§3) Cells were maintained at 37° C., 5% CO2 in DMEM media supplemented with 1% fetal bovine serum, penicillin/streptomycin and fungizone (Invitrogen). Cells were seeded into 96-well tissue culture plates at 3000 per well and cultured at 37° C. for 18 hours. Test compounds were dissolved and diluted to 300× in DMSO then diluted 1:40 in DMEM.
In another data set the test system is Ba/F3 parental cells. The data set can be described thus: MTS assay, Ba/F3 parental. Particulars: Mus musculus, BaF3, read-out: MTS IC50.
In data set [4] the test system is SNU-16. The data set can be described thus: MTS assay, SNU-16. The class given is cell-based. The conditions noted are these: Homo sapiens.
Description: as §3
In another data set the test system is AN3-CA. As to the kind of experiment: MTS cell kill assay, AN3-CA. The format is cell-based. The conditions noted are these: Homo sapiens.
For data set [5], the system named is RT112. The data set can be described thus: MTS cell kill assay, RT112. Particulars: Homo sapiens, RT-112, RT112. The class given is cell-based.
Description: as §3
Data set [6] relates to RT4. As to the kind of experiment: MTS cell kill assay, RT4. The format is cell-based. The conditions noted are these: Homo sapiens, RT-4, RT4.
Description: as §3
The subject of another data set is LS174T. The data set can be described thus: combination cytotoxicity, LS174T. Particulars: in combination with (3R,4R)-3-(5,6-dihydro-4H-pyrrolo[3,2,1-ij]quinolin-1-yl)-4-(1H-indol-3-yl)pyrrolidine-2,5-dione. The format is cell-based. The source says: (§1) The combination data of (R)-6-(2-fluorophenyl)-N-(3-(2-(4-(2-methoxyethyl)piperazin-1-yl)ethyl)phenyl)-5,6-dihydrobenzo[h]quinazolin-2-amine with a kinase inhibitor (3R,4R)-3-(5,6-dihydro-4H-pyrrolo[3,2,1-ij]quinolin-1-yl)-4-(1H-indol-3-yl)pyrrolidine-2,5-dione is shown in Table 28. The identity and tissue origin of cancer cell lines are indicated.

Another data set relates to CALU-6. The data set can be described thus: combination cytotoxicity, CALU-6. The format is cell-based. The conditions noted are these: in combination with (3R,4R)-3-(5,6-dihydro-4H-pyrrolo[3,2,1-ij]quinolin-1-yl)-4-(1H-indol-3-yl)pyrrolidine-2,5-dione.
Description: as §1

The subject of data set [7] is RT112. The data set can be described thus: combination cytotoxicity, RT112. The format is cell-based. The conditions noted are these: in combination with (3R,4R)-3-(5,6-dihydro-4H-pyrrolo[3,2,1-ij]quinolin-1-yl)-4-(1H-indol-3-yl)pyrrolidine-2,5-dione.
Description: as §1

The subject of the next data set is Kato III cells. The data set can be described thus: cell cycle profile by FACS analyses. The class given is cell-based. The method, then:
Kato III cells were treated with example 159, or FGFR2 siRNA. Cell cycle profiles were assessed by FACS analyses (FIG. 3).

Data set [8] concerns SNU-16. As to the kind of experiment: combination cytotoxicity, SNU-16. The format is cell-based. The conditions noted are these: in combination with (3R,4R)-3-(5,6-dihydro-4H-pyrrolo[3,2,1-ij]quinolin-1-yl)-4-(1H-indol-3-yl)pyrrolidine-2,5-dione.
Description: as §1

Data set [9] deals with SNU-16, Ba/F3-FGFR2 or Ba/F3 INSR tumors. The data set can be described thus: tumor growth in xenograft models. Particulars: subcutaneous tumors in nude mice; orally dosed once daily. The class given is in vivo. The protocol:
(A) Tumor from cancer cells SNU-16, Ba/F3-FGFR2 or Ba/F3 INSR were established subcutaneously in nude mice. Tumor growth in nude mice orally dosed with the indicated dose of example 159, or vehicle control was determined. All regimens were administered once daily for the indicated number of days. Tumor sizes were evaluated periodically during treatment and are represented as the mean of tumor volume in mm3±SEM (n=10) (FIGS. 4A-C). Phosphorylation of FGFR2 (D) or ERK (E) was assessed for cells from tumors harvested at the indicated time points after a single oral administration of 250 mg/kg of Example 159 by immunohistochemistry.

In a further data set the test system is FGFR2 in KATO III. As to the kind of experiment: FGFR2 phosphorylation by immunoblotting, KATO III. The class given is cell-based. The conditions noted are these: 0.3 μM to 10 μM for 2 h, then KGF stimulation for 15 min. The protocol: (§2) Cells whose growth rely on FGFR2 as determined in Example 585 such as KATO III and SNU-16, were treated with increasing concentration of example 159, from 0.3 μM to 10 μM for 2 h, followed by stimulation with […] of KGF for 15 min.
For orientation: Immunoblotting shows a protein as a band on a membrane.

Data set [10] deals with RT4. As to the kind of experiment: combination cytotoxicity, RT4. The class given is cell-based. Particulars: in combination with (3R,4R)-3-(5,6-dihydro-4H-pyrrolo[3,2,1-ij]quinolin-1-yl)-4-(1H-indol-3-yl)pyrrolidine-2,5-dione.
Description: as §1

A further data set concerns A549. As to the kind of experiment: combination cytotoxicity, A549. The class given is cell-based. The conditions noted are these: in combination with (3R,4R)-3-(5,6-dihydro-4H-pyrrolo[3,2,1-ij]quinolin-1-yl)-4-(1H-indol-3-yl)pyrrolidine-2,5-dione.
Description: as §1

The subject of the next data set is THP-1. The data set can be described thus: combination cytotoxicity, THP-1. The class given is cell-based. Particulars: in combination with (3R,4R)-3-(5,6-dihydro-4H-pyrrolo[3,2,1-ij]quinolin-1-yl)-4-(1H-indol-3-yl)pyrrolidine-2,5-dione.
Description: as §1

The subject of the next data set is FGFR2 in SNU-16. The data set can be described thus: FGFR2 phosphorylation by immunoblotting, SNU-16. The format is cell-based. Particulars: 0.3 μM to 10 μM for 2 h, then KGF stimulation for 15 min. The protocol: as §2
The next data set relates to DU4475. The data set can be described thus: combination cytotoxicity, DU4475. The format is cell-based. The conditions noted are these: in combination with (3R,4R)-3-(5,6-dihydro-4H-pyrrolo[3,2,1-ij]quinolin-1-yl)-4-(1H-indol-3-yl)pyrrolidine-2,5-dione.
Description: as §1

A further data set relates to CAKI-2. The data set can be described thus: combination cytotoxicity, CAKI-2. The class given is cell-based. The conditions noted are these: in combination with (3R,4R)-3-(5,6-dihydro-4H-pyrrolo[3,2,1-ij]quinolin-1-yl)-4-(1H-indol-3-yl)pyrrolidine-2,5-dione.
Description: as §1

Setting [11] is: FGFR2 (N549H), read-out: Biochemical data (IC50-μM) FGFR2 (N549H).
The mark [12] stands for this setting: SNU-16, SNU-16, read-out: MTS cell kill data (IC50-μM) SNU-16.

T1 sequence (P21802 456-770 N549H limits assumed): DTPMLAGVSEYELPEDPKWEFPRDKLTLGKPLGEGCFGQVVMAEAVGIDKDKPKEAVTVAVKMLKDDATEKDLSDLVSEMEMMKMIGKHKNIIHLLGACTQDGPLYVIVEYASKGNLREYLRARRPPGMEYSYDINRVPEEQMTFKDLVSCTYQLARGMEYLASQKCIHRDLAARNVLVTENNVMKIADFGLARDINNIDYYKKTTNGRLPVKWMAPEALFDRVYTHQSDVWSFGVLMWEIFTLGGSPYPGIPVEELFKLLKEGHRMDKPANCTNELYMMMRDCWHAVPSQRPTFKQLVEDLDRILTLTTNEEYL
Description for AN3-CA: as §3
Description for Ba/F3 parental cells: as §3

With `COCCN1CCN(CCc2cccc(Nc3ncc4c(n3)-c3ccccc3[C@H](c3ccccc3F)C4)c2)CC1` [Example 159, (R)-6-(2-fluorophenyl)-N-(3-(2-(4-(2-methoxyethyl)piperazin-1-yl)ethyl)phenyl)-5,6-dihydrobenzo[h]quinazolin-2-amine], the IC50 was 0.00714 µM and 0.0523 µM at FGFR2 kinase (setting [11]); 0.0004 µM on FGFR2 kinase (read-out: Biochemical IC50); 0.2 µM with SNU-16 [1]; 0.1 µM in the data set with KATO III [2]; 0.1 µM in the data set with KATO III [3]; 70 µM in the data set with Ba/F3 parental cells. In addition, the IC50 with SNU-16 [4] (SNU-16, SNU-16, read-out: MTS IC50) amounted to 1 µM.
Turning to `COCCNCc1cccc(Nc2ncc3c(n2)-c2ccccc2[C@H](c2ccccc2F)C3)c1` [Example 178, (R)-6-(2-fluorophenyl)-N-(3-((2-methoxyethylamino)methyl)phenyl)-5,6-dihydrobenzo[h]quinazolin-2-amine hydrochloride], the IC50 came out at 0.0255 µM at FGFR2 kinase (setting [11]); 1.77 µM in the data set on AN3-CA; 0.711 µM in the data set with SNU-16 [4] (setting [12]); 2.68 µM with RT112 [5]; 4.28 µM in the data set with RT4 [6].
The matching figures for `CN1CCN(CCc2cccc(Nc3ncc4c(n3)-c3ccccc3[C@H](c3ccccc3F)C4)c2)CC1` [Example 161, (R)-6-(2-fluorophenyl)-N-(3-(2-(4-methylpiperazin-1-yl)ethyl)phenyl)-5,6-dihydrobenzo[h]quinazolin-2-amine hydrochloride]: 0.0174 µM, 0.738 µM, 0.397 µM, 0.627 µM and 1.47 µM.
Regarding `CCN(CC)CCNC(=O)c1c(C)[nH]c(/C=C2\C(=O)Nc3ccc(F)cc32)c1C` [Sunitinib, reference compound], the IC50 was determined as 4.3 µM in the data set with SNU-16 [1]; 1.6 µM in the data set on KATO III [2]; 0.3 µM in the data set on KATO III [3]; 1.1 µM in the data set on SNU-16 [4] (SNU-16, read-out: MTS IC50).
As for `CN1CCN(CCc2cc(Nc3ncc4c(n3)-c3ccccc3[C@H](c3ccccc3F)C4)ccc2F)CC1` [Example 174, (R)-N-(4-fluoro-3-(2-(4-methylpiperazin-1-yl)ethyl)phenyl)-6-(2-fluorophenyl)-5,6-dihydrobenzo[h]quinazolin-2-amine hydrochloride salt], the concentration for half-maximal inhibition (IC50) at FGFR2 kinase (setting [11]) is 0.0433 µM; with AN3-CA, 2 µM; with SNU-16 [4] (setting [12]) it was 1.16 µM; in the data set on RT112 [5], 1.52 µM; with RT4 [6], 3.54 µM.
For the compound `COCCN1CCN(CCc2cccc(Nc3ncc4c(n3)-c3ccccc3[C@H](c3ccccc3F)C4)c2)CC1` [(R)-6-(2-fluorophenyl)-N-(3-(2-(4-(2-methoxyethyl)piperazin-] [(R)-6-(2-fluorophenyl)-N-(3-(2-(4-(2-methoxyethyl)piperazin-1-yl)ethyl)phenyl)-5,6-dihydrobenzo[h]quinazolin-2-amine], the combination cytotoxicity entry in the data set with LS174T, in the data set on CALU-6, in the data set on RT112 [7], with SNU-16 [8], in the data set on RT4 [10] and with A549 was “additive cytotoxicity” in each case. Besides, the combination cytotoxicity entry with THP-1, with DU4475 and in the data set with CAKI-2 was “additive cytotoxicity” each time. In addition, in the data set on Kato III cells, the cell cycle profile entry is listed as “arrest of KATO III cells in G1 phase”. In data set [9], the “tumor growth in xenograft models” value is given as “inhibition of tumor growth”. For the same compound, the “amount of phosphorylated FGFR2” value with FGFR2 in KATO III and with FGFR2 in SNU-16 was “inhibition of autophosphorylation of FGFR2” throughout.
Consider `COCCN1CCN(CCc2cc(Nc3ncc4c(n3)-c3ccccc3[C@H](c3ccccc3F)C4)ccc2F)CC1` [Example 175, (R)-N-(4-fluoro-3-(2-(4-(2-methoxyethyl)piperazin-1-yl)ethyl)phenyl)-6-(2-fluorophenyl)-5,6-dihydrobenzo[h]quinazolin-2-amine hydrochloride salt], for which the IC50 on FGFR2 kinase (setting [11]) is 0.0443 µM; in the data set with AN3-CA, 2.39 µM; with SNU-16 [4] (setting [12]), 1.04 µM; in the data set on RT112 [5], 1.54 µM; in the data set on RT4 [6], 2.97 µM.
In the case of `COCCN1CCN(CCc2ccc(Nc3ncc4c(n3)-c3ccccc3[C@H](c3ccccc3F)C4)cc2)CC1` [Example 66, (R)-6-(2-fluorophenyl)-N-(4-(2-(4-(2-methoxyethyl)piperazin-1-yl)ethyl)phenyl)-5,6-dihydrobenzo[h]quinazolin-2-amine hydrochloride], the IC50 at FGFR2 kinase (setting [11]) was determined as 0.014 µM; in the data set with AN3-CA it was 0.361 µM; with SNU-16 [4] (setting [12]), 1.28 µM; with RT4 [6], 1.55 µM.
With `Fc1ccccc1[C@@H]1Cc2cnc(Nc3cccc(CCN4CCNCC4)c3)nc2-c2ccccc21` [Example 163, (R)-6-(2-fluorophenyl)-N-(3-(2-(piperazin-1-yl)ethyl)phenyl)-5,6-dihydrobenzo[h]quinazolin-2-amine], the melting point is 165 to 167 °C. Further, the IC50 on FGFR2 kinase (setting [11]) was 0.0511 µM. Inhibition in the data set with AN3-CA was half-maximal at 1.39 µM (IC50). The IC50 in the data set on SNU-16 [4] (setting [12]) came out at 0.894 µM. The same compound came in with an IC50 with RT112 [5] of 1.19 µM. In the data set with RT4 [6], this compound gave an IC50 of 1.38 µM.
For `COCCN1CCN(CCc2cccc(Nc3ncc4c(n3)-c3ccccc3[C@@H](c3ccccc3F)C4)c2)CC1` [Example 164, (S)-6-(2-fluorophenyl)-N-(3-(2-(4-(2-methoxyethyl)piperazin-1-yl)ethyl)phenyl)-5,6-dihydrobenzo[h]quinazolin-2-amine], the IC50 at FGFR2 kinase (setting [11]) is 0.047 µM; in the data set with AN3-CA, 1.38 µM; with SNU-16 [4] (setting [12]), 1.34 µM; in the data set with RT112 [5] it was 1.51 µM; in the data set with RT4 [6], 2.97 µM.

One may read the IC50 as the concentration that inhibits the measured activity by half. A word on the melting point: it is the temperature of the solid-liquid transition.
